Data as given in patent US9339487B2, “Dry powder pharmaceutical composition for inhalation” (priority 2008, dated 2016).
Read-outs that look alike come from different tables or passages of the source.

Legend:
[1] = system: influenza A or B virus infection; assay type: in vivo, human; settings: adult patients
[2] = system: influenza A or B virus infection; experiment: Test of comparison with oseltamivir phosphate for child patients; assay type: in vivo, human
[3] = system: influenza A or B virus infection; assay type: in vivo, human
[4] = assay type: in vivo, human
Experimental: The medicinal component was administered in a single inhaled dose of 5 mg, 10 mg, 20 mg, or 40 mg to healthy adult male subjects, and the pharmacokinetics of the medicinal component and the compound (III), which is an active metabolite of the medicinal component, were evaluated.
(§1) The administration was performed using the composition prepared according to Example 41.

[5] = clinical; assay type: in vivo, human; settings: for fe0-144 h [%]: cumulative urinary recovery until 144 hours; for fe0-144 h [%] / Cmax / half-life / AUC(0-inf): geometric mean; for Tmax / Cmax / half-life / AUC(0-inf): male, human, in vivo; for Tmax: inhaled or intranasal, single inhaled dose of medicinal component, plasma, median; for AUC(0-inf): read-out: AUC0-inf [ng/mL]
Experimental: The medicinal component was administered in a single inhaled dose of 80 mg or 120 mg to healthy adult male subjects, and the pharmacokinetics of the medicinal component were evaluated. In addition, the pharmacokinetics of the Compound (III), an active metabolite of the medicinal component, were also determined.
as §1

Row | SMILES | upper limit of the 95% confidence interval for the difference between the median values ([1]; every dose group (20 mg, 40 mg), non-inferiority margin 18 hours) | duration of the illness compared with the oseltamivir phosphate group ([2]; child patients, each of the 20 mg group and the 40 mg group) | Difference (95% confidence interval, hours) in median value from the oseltamivir phosphate group ([3]; human, in vivo) | duration of influenza illness compared with the oseltamivir phosphate group ([3]; human, in vivo) | time after administration at which plasma concentration was less than the quantification lower limit ([4]; each dose group (5, 10, 20, 40 mg), single inhaled dose) [h] | dose proportionality of pharmacokinetic parameters (Cmax, AUC0-tz, AUC0-inf, Ae0-144h of medicinal component; Cmax, Ae0-144h of compound (III)) ([4]; single inhaled dose 5, 10, 20 or 40 mg) | time after administration at which almost not detected in urine ([4]; urinary excretion, single inhaled dose 5 to 40 mg) [h] | fe0-144 h [%] ([5]; 80 mg group) | fe0-144 h [%] ([5]; 120 mg group) | Tmax ([5]; 80 mg group) [h] | Tmax ([5]; 120 mg group) [h] | Cmax ([5]; 80 mg group) [ng/mL] | half-life ([5]; 80 mg group) [h] | AUC(0-inf) ([5]; 80 mg group) [ng·h/mL] | Cmax ([5]; 120 mg group) [ng/mL] | half-life ([5]; 120 mg group) [h] | AUC(0-inf) ([5]; 120 mg group) [ng·h/mL] | Median value (hours) of the duration of influenza illness ([1]; 75 mg twice daily for 5 days) [h] | Median value (hours) of the duration of influenza illness ([2]; child patients (9 or less years old), 2 mg/kg twice daily for 5 days) [h] | Median value (hours) of the duration of influenza illness ([3]; 75 mg twice daily for 5 days) [h]
1 | CCCCCCCC(=O)OC[C@@H](O)[C@@H](OC)[C@@H]1OC(C(=O)O)=C[C@H](NC(=N)N)[C@H]1NC(C)=O [Medicinal component, (2R,3R,4S)-3-acetamido-4-guanidino-2-[(1R,2R)-2-hydroxy-1-methoxy-3-(octanoyloxy)propyl]-3,4-dihydro-2H-pyran-6-carboxylic acid] | less than 18 hours | shorter | −1.4(−27.6 to 7.3) hours | almost equal | ≥ 24 | Dose proportionality was observed | ≥ 24 | 3.5 | 2.7 | 0.5 | 0.5 | 335 | 5.66 | 1270 | 412 | 2.87 | 1560 |  |  | 
2 | CCOC(=O)C1=C[C@@H](OC(CC)CC)[C@H](NC(C)=O)[C@@H](N)C1 [Oseltamivir phosphate, oseltamivir phosphate, reference compound] |  |  |  |  |  |  |  |  |  |  |  |  |  |  |  |  |  | 73.6 | 87.3 | 87.4
